Test results from US20210255193A1, “LYSINE REACTIVE PROBES AND USES THEREOF” (The Scripps Research Institute, priority 2017, published 2021).

How the values were obtained:
Assay in all cases: competitive isoTOP-ABPP
Assay type in all cases: binding
[1] = target: T1, ACBD3 Golgi resident protein GCP60 (Homo sapiens, UniProt Q9H3P7); set-up: key to isoTOP-ABPP reactivity ratio at lysine Q9H3P7_K117: R = MS1 peak area ratio, DMSO (heavy) / compound-treated (light); conditions: for isoTOP-ABPP ratio (R) at liganded lysine Q9H3P7_K117: sol, 231
T1 construct: isoTOP-ABPP experiments performed in cell lysates (in vitro); endogenous in cells; host or cells: soluble proteome of human cancer cell lines (MDA-MB-231; Ramos and Jurkat also prepared)
T1 sequence (Q9H3P7 1-528): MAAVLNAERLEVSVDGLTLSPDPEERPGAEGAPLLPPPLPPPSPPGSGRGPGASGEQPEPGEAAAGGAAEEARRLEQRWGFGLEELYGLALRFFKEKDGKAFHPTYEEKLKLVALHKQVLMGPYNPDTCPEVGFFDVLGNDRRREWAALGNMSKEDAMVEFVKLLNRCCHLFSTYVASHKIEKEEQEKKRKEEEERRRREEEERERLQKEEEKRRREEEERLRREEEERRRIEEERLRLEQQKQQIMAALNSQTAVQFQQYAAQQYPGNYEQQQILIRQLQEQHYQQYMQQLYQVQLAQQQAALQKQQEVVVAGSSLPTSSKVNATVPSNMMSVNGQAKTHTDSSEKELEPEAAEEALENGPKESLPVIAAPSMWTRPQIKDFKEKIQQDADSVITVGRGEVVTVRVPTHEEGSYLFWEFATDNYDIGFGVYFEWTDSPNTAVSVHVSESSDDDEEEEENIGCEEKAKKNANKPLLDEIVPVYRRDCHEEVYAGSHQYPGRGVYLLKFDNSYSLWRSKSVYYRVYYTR
Protocol: (§1) In vitro covalent fragment treatment for isoTOP-ABPP. All compounds were made up as solutions in DMSO (100×) and were used at a final concentration of 50 μM for activated esters and 100 μM for guanidinylating agents. For each profiling sample, 0.5 ml of lysate was treated with 5 μl of the 100× compound stock solution or 5 μl of DMSO. Samples were treated with activated esters for
(§2) STP-alkyne labeling and click chemistry. For concentration-dependent reactivity measurements by isoTOP-ABPP, 0.5 ml proteome aliquots were treated at ambient temperature with 1 mM STP-alkyne 1 (5 μl of 100 mM stock in DMSO) and 0.1 mM STP alkyne 1 (5 μl of 10 mM stock in DMSO), respectively. For competitive isoTOP-ABPP, after in vitro fragment treatment (detailed above), the samples were labeled for 1 h at ambient temperature with 0.1 mM STP-alkyne 1 (5 μl of 10 mM stock in DMSO). Samples were conjugated by copper-mediated azide-alkyne cycloaddition (CuAAC) to either the light (1 mM STP-alkyne or fragment treated) or heavy (0.1 mM STP-alkyne or DMSO treated) TEV tags (10 μl of 5 mM stocks in DMSO, final concentration=100 μM) using tris(2-carboxyethyl)phosphine hydrochloride
(§3) R value calculation and processing. The ratios of light and heavy MS1 peaks for each unique peptide were quantified with a CIMAGE software using default parameters (3 MS1 acquisitions per peak and signal to noise threshold set to 2.5). For reactivity measurements by isoTOP-ABPP, the R value was calculated from the ratio of MS1 peak areas, comparing the 1 mM STP alkyne sample (light TEV tag) with the 0.1 mM STP alkyne sample (heavy TEV tag). For competitive isoTOP-ABPP, the R value was calculated from the ratio of MS1 peak areas, comparing the DMSO treated sample (heavy TEV tag) with the compound treated sample (light TEV tag). […] Ratios for unique peptide entries are calculated for each experiment; overlapping peptides with the same modified lysine (for example, different charge states, MudPIT chromatographic steps or tryptic termini) are grouped together and the median ratio is reported as the final ratio (R). The peptide ratios reported by CIMAGE were further filtered to ensure the removal or correction of low-quality ratios in each individual data set. The quality filters applied were the following: removal of half tryptic peptides; for ratios with high standard deviations from the median (90% of the median or above) the lowest ratio was taken instead of the median; removal of peptides with R=20 and only a single MS2 event triggered during the elution of the parent ion; manual annotation of all the peptides with ratios of 20, removing any peptides with low quality elution profiles that remained after the previous curation steps (only done for competitive isoTOP-ABPP).
(§4) Cross-data processing for fragment screening. For compound treated samples, biological replicates of the same condition were averaged, if the standard deviation was below 60% of the mean; otherwise, for lysines with at least one R value <4 for a particular compound, the lowest value of the ratio set was taken. For lysines, where all R values for a particular compound were ≥4, the average was reported. For peptides containing several possible modified lysines, the lysine with the highest number of quantification events was used for analysis and the remaining, redundant peptides were reported as alternative modification sites. Peptides included in the aggregate dataset (those used for further bioinformatics and statistical analyses) were required to have been quantified in 2 experiments for competitive isoTOP-ABPP. Lysines were categorized as liganded, if they had at least one ratio R≥4 (hit fragments). For liganded lysines with R=20 for all liganding events, lysines were required to have been quantified with R=20 in two separate experiments and were further required to have been quantified with R<20 in one additional experiment.

[2] = target: T2, PSME3 Proteasome activator complex subunit 3 (Homo sapiens, UniProt P61289); set-up: key to isoTOP-ABPP reactivity ratio at lysine P61289_K237: R = MS1 peak area ratio, DMSO (heavy) / compound-treated (light); key to isoTOP-ABPP reactivity ratio at lysine P61289_K12: R = MS1 peak area ratio, DMSO (heavy) / compound-treated (light); capped at 20
T2 construct: isoTOP-ABPP experiments performed in cell lysates (in vitro); endogenous in cells; host or cells: soluble proteome of human cancer cell lines (MDA-MB-231, Ramos, Jurkat)
Protocol: as §1, §2, §3, §4

[3] = target: T3, NUDT2 Bis(5-nucleosyl)-tetraphosphatase (Homo sapiens, UniProt P50583); set-up: key to isoTOP-ABPP reactivity ratio at lysine P50583_K89: R = MS1 peak area ratio, DMSO (heavy) / compound-treated (light); conditions: for isoTOP-ABPP ratio (R) at liganded lysine P50583_K89: sol, 231
T3 construct: isoTOP-ABPP experiments performed in cell lysates (in vitro); endogenous in cells
Protocol: as §1, §2, §3, §4

[4] = target: T4, MAP1LC3B Microtubule-associated proteins 1A/1B light chain (Homo sapiens, UniProt Q9GZQ8); set-up: key to isoTOP-ABPP reactivity ratio at lysine Q9GZQ8_K51: R = MS1 peak area ratio, DMSO (heavy) / compound-treated (light); conditions: for isoTOP-ABPP ratio (R) at liganded lysine Q9GZQ8_K51: sol, 231
T4 construct: isoTOP-ABPP experiments performed in cell lysates (in vitro); endogenous in cells; host or cells: soluble proteome of human cancer cell lines (MDA-MB-231; Ramos and Jurkat also prepared)
Protocol: as §1, §2, §3, §4

[5] = target: T5, SRP54 Signal recognition particle 54 kDa protein (Homo sapiens, UniProt P61011); set-up: key to isoTOP-ABPP reactivity ratio at lysine P61011_K81: R = MS1 peak area ratio, DMSO (heavy) / compound-treated (light); capped at 20; conditions: 50 uM, in vitro
T5 construct: isoTOP-ABPP experiments performed in cell lysates (in vitro); endogenous in cells; host or cells: soluble proteome of human cancer cell lines (MDA-MB-231, Ramos, Jurkat)
Protocol: as §1, §2, §3, §4

[6] = target: T6, POLR2L DNA-directed RNA polymerases I, II, and III subunit (Homo sapiens, UniProt P62875)
T6 construct: isoTOP-ABPP experiments performed in cell lysates (in vitro); endogenous in cells; host or cells: soluble proteome of human cancer cell lines (MDA-MB-231, Ramos, Jurkat)
Protocol: as §1, §2, §3, §4

T2 sequence (P61289 whole entry, one chain of several): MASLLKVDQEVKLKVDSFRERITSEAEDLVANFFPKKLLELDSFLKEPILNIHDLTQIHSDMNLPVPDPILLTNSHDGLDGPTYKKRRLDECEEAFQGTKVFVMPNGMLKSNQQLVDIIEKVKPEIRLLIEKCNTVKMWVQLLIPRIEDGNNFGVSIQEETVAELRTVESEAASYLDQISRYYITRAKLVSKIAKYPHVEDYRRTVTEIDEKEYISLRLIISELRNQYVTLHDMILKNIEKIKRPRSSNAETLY
T3 sequence (P50583 whole entry): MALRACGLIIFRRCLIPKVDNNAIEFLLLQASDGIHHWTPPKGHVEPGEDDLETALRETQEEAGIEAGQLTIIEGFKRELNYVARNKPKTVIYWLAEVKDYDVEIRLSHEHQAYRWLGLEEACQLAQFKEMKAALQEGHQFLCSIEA
T5 sequence (P61011 whole entry): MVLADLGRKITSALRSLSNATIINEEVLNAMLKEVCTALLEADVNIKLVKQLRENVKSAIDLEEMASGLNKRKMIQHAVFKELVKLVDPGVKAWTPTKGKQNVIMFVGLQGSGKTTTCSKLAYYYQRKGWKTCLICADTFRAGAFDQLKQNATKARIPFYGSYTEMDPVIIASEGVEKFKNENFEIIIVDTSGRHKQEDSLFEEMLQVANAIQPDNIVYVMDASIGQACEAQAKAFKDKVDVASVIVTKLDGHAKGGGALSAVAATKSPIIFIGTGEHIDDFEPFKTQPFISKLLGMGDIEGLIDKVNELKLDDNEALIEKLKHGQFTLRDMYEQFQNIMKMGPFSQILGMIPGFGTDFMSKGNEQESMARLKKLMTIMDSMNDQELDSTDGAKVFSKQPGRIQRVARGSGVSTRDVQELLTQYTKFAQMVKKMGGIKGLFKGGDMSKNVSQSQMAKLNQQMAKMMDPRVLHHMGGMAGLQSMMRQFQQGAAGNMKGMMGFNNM

Cn1cc(CC(=O)Oc2ccc([N+](=O)[O-])cc2[N+](=O)[O-])c2ccccc21 [fragment 32, 2,4-Dinitrophenyl 2-(1-methyl-1H-indol-3-yl)acetate]
isoTOP-ABPP reactivity ratio at lysine Q9H3P7_K117 ([1]; 50 uM, 231 sol, in vitro): 1.3
isoTOP-ABPP reactivity ratio at lysine P61289_K12 ([2]; 50 uM, 231 sol, in vitro): 4.7
isoTOP-ABPP reactivity ratio at lysine P61289_K237 ([2]; 50 uM, 231 sol, in vitro): 5.1
isoTOP-ABPP reactivity ratio at lysine P50583_K89 ([3]; 50 uM, 231 sol, in vitro): 3.7
isoTOP-ABPP reactivity ratio at lysine Q9GZQ8_K51 ([4]; 50 uM, 231 sol, in vitro): 0.9
isoTOP-ABPP reactivity ratio at lysine P61011_K81 ([5]; 231 sol): 20.0

O=C(CC12CC3CC(CC(C3)C1)C2)Oc1ccc([N+](=O)[O-])cc1[N+](=O)[O-] [fragment 38, 2,4-Dinitrophenyl 2-(adamantan-1-yl)acetate]
isoTOP-ABPP ratio (R) at liganded lysine Q9H3P7_K117 ([1]; 50 uM, in vitro): 1.0
isoTOP-ABPP ratio (R) at liganded lysine P61289_K12 ([2]; 50 uM, in vitro, sol, 231): 1.9
isoTOP-ABPP ratio (R) at liganded lysine P50583_K89 ([3]; 50 uM, in vitro): 0.9
isoTOP-ABPP ratio (R) at liganded lysine Q9GZQ8_K51 ([4]; 50 uM, in vitro): 0.8

O=C(Oc1ccc([N+](=O)[O-])cc1[N+](=O)[O-])c1ccccc1Nc1cccc(C(F)(F)F)c1 [fragment 40, 2,4-Dinitrophenyl 2-((3-(trifluoromethyl)phenyl)amino)benzoate]
isoTOP-ABPP ratio (R) at liganded lysine Q9H3P7_K117 ([1]; 50 uM, in vitro): 0.9
isoTOP-ABPP ratio (R) at liganded lysine P61289_K12 ([2]; 50 uM, in vitro, sol, 231): 0.8
isoTOP-ABPP ratio (R) at liganded lysine P61289_K237 ([2]; 50 uM, in vitro, sol, 231): 0.7
isoTOP-ABPP ratio (R) at liganded lysine P50583_K89 ([3]; 50 uM, in vitro): 0.9
isoTOP-ABPP ratio (R) at liganded lysine P62875_K67 ([6]; 50 uM, in vitro, sol, 231): 1.0
isoTOP-ABPP ratio (R) at liganded lysine Q9GZQ8_K51 ([4]; 50 uM, in vitro): 1.0

CC(=O)Oc1ccc([N+](=O)[O-])cc1[N+](=O)[O-] [fragment 43, 2,4-Dinitrophenyl acetate]
isoTOP-ABPP ratio (R) at liganded lysine Q9H3P7_K117 ([1]; 50 uM, in vitro): 1.2
isoTOP-ABPP ratio (R) at liganded lysine P50583_K89 ([3]; 50 uM, in vitro): 1.1
isoTOP-ABPP ratio (R) at liganded lysine P61011_K81 ([5]; sol, 231): 20.0

CC(C)(C)OC(=O)N=C(NC(=O)OC(C)(C)C)n1cccn1 [fragment 50, reference compound]
isoTOP-ABPP ratio, lysine Q9H3P7_K117 ([1]; 100 uM_231_sol_in vitro): 14.9
isoTOP-ABPP ratio, lysine P61289_K12 ([2]; 100 uM_231_sol_in vitro): 0.7
isoTOP-ABPP ratio, lysine P61289_K237 ([2]; 100 uM_231_sol_in vitro): 0.9
isoTOP-ABPP ratio, lysine P50583_K89 ([3]; 100 uM_231_sol_in vitro, possible other lysine P50583_K87): 20.0
reaction with K89 by isoTOP-ABPP ([3]; NUDT2 K89): preferentially reacting
isoTOP-ABPP ratio, lysine P62875_K67 ([6]; 100 uM_231_sol_in vitro): 1.0
isoTOP-ABPP ratio, lysine Q9GZQ8_K51 ([4]; 100 uM_231_sol_in vitro): 4.6
